From patent US4303664A, “Novel penicillin derivatives containing a coumarin nucleus and medicines containing the same” (Teijin Limited, priority 1978, dated 1981)
Values after ≈ are worked out from the molar mass of the structure shown.

Key:
[1] = test system: Enterobacter cloacae IF012937; assay: Bactericidal test (MIC), Enterobacter cloacae IF012937; assay type: cell-based; details: (8) Enterobacter cloacae IF012937
Text: (§1) Results of bactericidal tests (MIC, r/ml) on the penicillin derivatives of this invention prepared in the above examples are shown in the following table.

[2] = test system: Escherichia Coli NIHJ JC-2; assay: Bactericidal test (MIC), Escherichia Coli NIHJ JC-2; assay type: cell-based; details: NIHJJC2; (5) Escherichia Coli NIHJ JC-2
Text: as §1

[3] = Acute toxicity values [(LD50), mouse]; details: in vivo, Oral
Text: Acute toxicity values [(LD50), mouse] of some penicillin derivatives of this invention are illustrated in the following table.

Bacillus subtilis = assay: Bactericidal test (MIC), Bacillus subtilis; assay type: cell-based; details: (3) Bacillus subtilis
Text: as §1

[4] = test system: Pseudomonas aeruginosa IFO-3080; assay: Bactericidal test (MIC), Pseudomonas aeruginosa IFO-3080; assay type: cell-based; details: IFO3080; (12) Pseudomonas aeruginosa IFO-3080; read-out: MIC
Text: as §1

[5] = test system: Staphylococcus aureus 209-p; assay: Bactericidal test (MIC), Staphylococcus aureus 209-p; assay type: cell-based; details: (1) Staphylococcus aureus 209-p
Text: as §1

[6] = test system: Pseudomonas aeruginosa 0-37; assay: Bactericidal test (MIC), Pseudomonas aeruginosa 0-37; assay type: cell-based; details: 037; (13) Pseudomonas aeruginosa 0-37
Text: as §1

[7] = test system: Staphylococcus aureus 1248; assay: Bactericidal test (MIC), Staphylococcus aureus 1248; assay type: cell-based; details: (2) Staphylococcus aureus 1248; read-out: MIC
Text: as §1

Rettgerella var. Tid-21 = assay: Bactericidal test (MIC), Rettgerella var. Tid-21; assay type: cell-based; details: (10) Rettgerella var. Tid-21; read-out: MIC
Text: as §1

[8] = test system: Pseudomonas aeruginosa GN-315; assay: Bactericidal test (MIC), Pseudomonas aeruginosa GN-315; assay type: cell-based; details: GN315; (15) Pseudomonas aeruginosa GN-315
Text: as §1

Serratia G-18 = assay: Bactericidal test (MIC), Serratia G-18; assay type: cell-based; details: G18; (11) Serratia G-18; read-out: MIC
Text: as §1

Morganella var. G-2 = assay: Bactericidal test (MIC), Morganella var. G-2; assay type: cell-based; details: VAR.G2; (9) Morganella var. G-2; read-out: MIC
Text: as §1

[9] = test system: Salmonella typhimurium G-20; assay: Bactericidal test (MIC), Salmonella typhimurium G-20; assay type: cell-based; details: Salmonella enterica; (4) Salmonella typhimurium G-20
Text: as §1

Enterobactor cloacae 147 = assay: Bactericidal test (MIC), Enterobactor cloacae 147; assay type: cell-based; details: (7) Enterobactor cloacae 147
Text: as §1

[10] = test system: Pseudomonas aeruginosa Tid-53; assay: Bactericidal test (MIC), Pseudomonas aeruginosa Tid-53; assay type: cell-based; details: TID53; (14) Pseudomonas aeruginosa Tid-53
Text: as §1

[11] = test system: Klebsiella neumoniae ATCC10031; assay: Bactericidal test (MIC), Klebsiella neumoniae ATCC10031; assay type: cell-based; details: (6) Klebsiella neumoniae ATCC10031; read-out: MIC
Text: as §1

[12] = test system: Pseudomonas aeruginosa 130; assay: Bactericidal test (MIC), Pseudomonas aeruginosa 130; assay type: cell-based; details: (16) Pseudomonas aeruginosa 130
Text: as §1

| SMILES | MIC [1] [mg/L] | MIC [2] [mg/L] | LD50 [3] [mg/kg] | MIC (Bacillus subtilis) [mg/L] | MIC [4] [mg/L] | MIC [5] [mg/L] | MIC [6] [mg/L] | MIC [7] [mg/L] | MIC (Rettgerella var. Tid-21) [mg/L] | MIC [8] [mg/L] | MIC (Serratia G-18) [mg/L] | MIC (Morganella var. G-2) [mg/L] | MIC [9] [mg/L] | MIC (Enterobactor cloacae 147) [mg/L] | MIC [10] [mg/L] | MIC [11] [mg/L] | MIC [12] [mg/L] |
| --- | --- | --- | --- | --- | --- | --- | --- | --- | --- | --- | --- | --- | --- | --- | --- | --- | --- |
| CC1(C)S[C@@H]2[C@H](NC(=O)[C@H](NC(=O)c3cc4ccccc4oc3=O)c3ccccc3)C(=O)N2[C@H]1C(=O)O [Example 1, D(-)-α-(Coumarin-3-carbonamido)benzylpenicillin] | 6.25 (≈ 12 µM) | < 0.4 | > 4000 | < 0.4 | < 0.4 | < 0.4 | 12.5 (≈ 24 µM) | 1.56 (≈ 2.99 µM) | 1.56 (≈ 2.99 µM) | 1.56 (≈ 2.99 µM) | 12.5 (≈ 24 µM) | 3.13 (≈ 6 µM) | < 0.4 | 3.13 (≈ 6 µM) | 3.13 (≈ 6 µM) | < 0.4 | < 0.4 |
| Cc1ccc2oc(=O)c(C(=O)N[C@@H](C(=O)N[C@@H]3C(=O)N4[C@@H]3SC(C)(C)[C@@H]4C(=O)O)c3ccccc3)c(C)c2c1 [Example 5, D(-)-α-(4,6-Dimethylcoumarin-3-carbonamido)benzylpenicillin] | 50 (≈ 91 µM) | < 0.4 |  | < 0.4 | 12.5 (≈ 22.7 µM) | < 0.4 | 200 (≈ 364 µM) | 1.56 (≈ 2.84 µM) | 25 (≈ 45.5 µM) | 50 (≈ 91 µM) | 50 (≈ 91 µM) | 25 (≈ 45.5 µM) | < 0.4 | 100 (≈ 182 µM) | 50 (≈ 91 µM) | 0.8 (≈ 1.46 µM) | 12.5 (≈ 22.7 µM) |
| CC1(C)S[C@@H]2[C@H](NC(=O)[C@H](NC(=O)c3cc4cc(O)ccc4oc3=O)c3ccccc3)C(=O)N2[C@H]1C(=O)O [Example 10, D(-)-α-(6-Hydroxycoumarin-3-carbonamido)benzylpenicillin] | 100 (≈ 186 µM) | < 0.4 |  | < 0.4 | 1.56 (≈ 2.9 µM) | < 0.4 | 25 (≈ 46.5 µM) | 1.56 (≈ 2.9 µM) | 6.25 (≈ 11.6 µM) | 3.13 (≈ 5.82 µM) | 12.5 (≈ 23.3 µM) | 6.25 (≈ 11.6 µM) | < 0.4 | 3.13 (≈ 5.82 µM) | 6.25 (≈ 11.6 µM) | 0.8 (≈ 1.49 µM) | 3.13 (≈ 5.82 µM) |
| CC1(C)S[C@@H]2[C@H](NC(=O)[C@H](NC(=O)c3cc4cc([N+](=O)[O-])ccc4oc3=O)c3ccccc3)C(=O)N2[C@H]1C(=O)O [Example 13, D(-)-α-(6-Nitrocoumarin-3-carbonamido)benzylpenicillin] | 12.5 (≈ 22.1 µM) | < 0.4 |  | < 0.4 | 6.25 (≈ 11 µM) | < 0.4 | 100 (≈ 177 µM) | 6.25 (≈ 11 µM) | 50 (≈ 88.3 µM) | 12.5 (≈ 22.1 µM) | 50 (≈ 88.3 µM) | 6.25 (≈ 11 µM) | < 0.4 | 25 (≈ 44.1 µM) | 25 (≈ 44.1 µM) | 12.5 (≈ 22.1 µM) | 6.25 (≈ 11 µM) |
| COc1ccc2cc(C(=O)N[C@@H](C(=O)N[C@@H]3C(=O)N4[C@@H]3SC(C)(C)[C@@H]4C(=O)O)c3ccccc3)c(=O)oc2c1 [Example 8, D(-)-α-(7-Methoxycoumarin-3-carbonamido)benzylpenicillin] | 6.25 (≈ 11.3 µM) | < 0.4 |  | < 0.4 | 1.56 (≈ 2.83 µM) | < 0.4 | 25 (≈ 45.3 µM) | < 0.4 | 6.25 (≈ 11.3 µM) | 3.13 (≈ 5.67 µM) | 12.5 (≈ 22.7 µM) | 3.13 (≈ 5.67 µM) | < 0.4 | 1.56 (≈ 2.83 µM) | 3.13 (≈ 5.67 µM) | < 0.4 | 3.13 (≈ 5.67 µM) |
| CC1(C)S[C@@H]2[C@H](NC(=O)[C@H](NC(=O)c3cc4cc(Br)cc(Br)c4oc3=O)c3ccccc3)C(=O)N2[C@H]1C(=O)O [Example 4, D(-)-α-(6,8-Dibromocoumarin-3-carbonamido)benzylpenicillin] | 200 (≈ 294 µM) | < 0.4 |  | 1.56 (≈ 2.3 µM) | 50 (≈ 73.6 µM) | 1.56 (≈ 2.3 µM) | 200 (≈ 294 µM) | 50 (≈ 73.6 µM) | 100 (≈ 147 µM) | 200 (≈ 294 µM) | 100 (≈ 147 µM) | 25 (≈ 36.8 µM) | 3.13 (≈ 4.61 µM) | 50 (≈ 73.6 µM) | 200 (≈ 294 µM) | 3.13 (≈ 4.61 µM) | 50 (≈ 73.6 µM) |
